What was measured:
Assay in all cases: relative viability (nuclei count vs DMSO), 5 days (fraction); higher = more cells survive
A549 = tested on: A549
Summary of the method: (§1)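 Relative viability divides the nuclei count in treated wells by that in vehicle wells. Lung cancer cell lines were seeded in 1536-well plates, dosed by pin tool the next day, and fixed and stained after 5 days in one step with final 0.05% Triton X-100, 1% formaldehyde and 1 ug/ml Hoechst. Dosing was a single drug or a fixed anchor-drug dose plus five library-drug doses (not always all listed) in √10 steps, and values are medians of duplicate plates imaged at 4×.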

Calu-6 = tested on: Calu-6
Summary of the method: as §1

EBC-1 = tested on: EBC-1
Summary of the method: as §1

IA-LM = tested on: IA-LM
Summary of the method: as §1

NCI-H1299 = tested on: NCI-H1299
Summary of the method: as §1

NCI-H1648 = tested on: NCI-H1648
Summary of the method: as §1

NCI-H1703 = tested on: NCI-H1703
Summary of the method: as §1

NCI-H2009 = tested on: NCI-H2009
Summary of the method: as §1

NCI-H460 = tested on: NCI-H460
Summary of the method: as §1

NCI-H522 = tested on: NCI-H522
Summary of the method: as §1

NCI-H661 = tested on: NCI-H661
Summary of the method: as §1

NC(=O)Nc1cc(-c2cccc(F)c2)sc1C(=O)N[C@H]1CCCNC1 [AZD7762] + O=C(c1cc(Cc2n[nH]c(=O)c3ccccc23)ccc1F)N1CCN(C(=O)C2CC2)CC1 [Olaparib] (partner 8 µM) gave a relative viability (A549; first compound 0.01 µM) of 0.37, a relative viability (A549; first compound 0.03162 µM) of 0.387 and a relative viability (A549; first compound 0.1 µM) of 0.381. The relative viability (A549; first compound 0.3162 µM) was 0.481, the relative viability (A549; first compound 1 µM) was 0.155 and the relative viability (Calu-6; first compound 0.01 µM) was 0.636. The relative viability (Calu-6; first compound 0.03162 µM) was 0.47, the relative viability (Calu-6; first compound 0.1 µM) was 0.375 and the relative viability (Calu-6; first compound 0.3162 µM) was 0.166. The relative viability (Calu-6; first compound 1 µM) was 0.109, the relative viability (EBC-1; first compound 0.01 µM) was 0.848 and the relative viability (EBC-1; first compound 0.03162 µM) was 0.915. For the same compound, the relative viability (EBC-1; first compound 0.1 µM) was 0.872, the relative viability (EBC-1; first compound 0.3162 µM) was 0.717 and the relative viability (EBC-1; first compound 1 µM) was 0.451. For the same compound, the relative viability (IA-LM; first compound 0.01 µM) was 1.07, the relative viability (IA-LM; first compound 0.03162 µM) was 0.796 and the relative viability (IA-LM; first compound 0.1 µM) was 0.891. It also gave a relative viability (IA-LM; first compound 0.3162 µM) of 0.655, a relative viability (IA-LM; first compound 1 µM) of 0.171 and a relative viability (NCI-H1299; first compound 0.01 µM) of 1.02. It also gave a relative viability (NCI-H1299; first compound 0.03162 µM) of 1, a relative viability (NCI-H1299; first compound 0.1 µM) of 0.954 and a relative viability (NCI-H1299; first compound 0.3162 µM) of 0.688. For the same compound, the relative viability (NCI-H1299; first compound 1 µM) was 0.312, the relative viability (NCI-H1648; first compound 0.01 µM) was 0.639 and the relative viability (NCI-H1648; first compound 0.03162 µM) was 0.994. The relative viability (NCI-H1648; first compound 0.1 µM) was 0.751, the relative viability (NCI-H1648; first compound 0.3162 µM) was 0.934 and the relative viability (NCI-H1648; first compound 1 µM) was 0.61. For the same compound, the relative viability (NCI-H1703; first compound 0.01 µM) was 0.305, the relative viability (NCI-H1703; first compound 0.03162 µM) was 0.214 and the relative viability (NCI-H1703; first compound 0.1 µM) was 0.206. For the same compound, the relative viability (NCI-H1703; first compound 0.3162 µM) was 0.168, the relative viability (NCI-H1703; first compound 1 µM) was 0.12 and the relative viability (NCI-H2009; first compound 0.01 µM) was 0.719. It also gave a relative viability (NCI-H2009; first compound 0.03162 µM) of 0.726, a relative viability (NCI-H2009; first compound 0.1 µM) of 0.747 and a relative viability (NCI-H2009; first compound 0.3162 µM) of 0.521. For the same compound, the relative viability (NCI-H2009; first compound 1 µM) was 0.34, the relative viability (NCI-H460; first compound 0.01 µM) was 0.441 and the relative viability (NCI-H460; first compound 0.03162 µM) was 0.35. It also gave a relative viability (NCI-H460; first compound 0.1 µM) of 0.261, a relative viability (NCI-H460; first compound 0.3162 µM) of 0.132 and a relative viability (NCI-H460; first compound 1 µM) of 0.0653. For the same compound, the relative viability (NCI-H522; first compound 0.01 µM) was 0.711, the relative viability (NCI-H522; first compound 0.03162 µM) was 0.631 and the relative viability (NCI-H522; first compound 0.1 µM) was 0.676. For the same compound, the relative viability (NCI-H522; first compound 0.3162 µM) was 0.59, the relative viability (NCI-H522; first compound 1 µM) was 0.632 and the relative viability (NCI-H661; first compound 0.01 µM) was 0.798. For the same compound, the relative viability (NCI-H661; first compound 0.03162 µM) was 0.779, the relative viability (NCI-H661; first compound 0.1 µM) was 0.711 and the relative viability (NCI-H661; first compound 0.3162 µM) was 0.503. It also gave a relative viability (NCI-H661; first compound 1 µM) of 0.426.

From the supplement of paper PMC10307832
